Experimental data: patent US20240116892A1, “HETEROCYCLIC AMIDE AND UREA COMPOUNDS AS JAK2 INHIBITORS” (Ajax Therapeutics, Inc., priority 2022, published 2024)

Molecular target: JAK2 (JH1 domain-catalytic, Y1007F, Y1008F) kinase (Homo sapiens (Human), UniProt O60674, Y1007F/Y1008F)
Experiment: JAK2 JH1 Domain Binding Assay
Conditions: qPCR readout
Summary of the method: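 Competitive binding format: test compound, DNA-tagged JAK2 JH1 (Y1007F/Y1008F; HEK293-expressed NFkB fusion) and ligand-coated magnetic beads incubated 1 h at room temperature. Kinase retained on beads released with 0.5 μmol/L non-biotinylated ligand, then measured by qPCR.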

Chain of JAK2 (JH1 domain-catalytic, Y1007F, Y1008F) kinase (O60674 849-1124 Y1007F/Y1008F): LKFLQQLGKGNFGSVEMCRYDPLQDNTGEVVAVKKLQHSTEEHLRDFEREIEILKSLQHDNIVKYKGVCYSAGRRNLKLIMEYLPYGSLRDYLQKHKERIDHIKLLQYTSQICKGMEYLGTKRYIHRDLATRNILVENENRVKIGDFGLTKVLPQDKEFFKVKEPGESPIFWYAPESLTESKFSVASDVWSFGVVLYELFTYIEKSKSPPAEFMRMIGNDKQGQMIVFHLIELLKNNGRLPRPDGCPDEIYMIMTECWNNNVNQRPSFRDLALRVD

| Substance | Kd [nM] |
| --- | --- |
| (S)-1-methyl-3-(1-methyl-2-oxo-5-(trifluoromethyl)-1,2-dihydropyridin-3-yl)-1-(3-(3-((tetrahydrofuran-3-yl)oxy)-1H-pyrazolo[3,4-b]pyridin-5-yl)bicyclo[1.1.1]pentan-1-yl)urea and (R)-1-methyl-3-(1-methyl-2-oxo-5-(trifluoromethyl)-1,2-dihydropyridin-3-yl)-1-(3-(3-((tetrahydrofuran-3-yl)oxy)-1H-pyrazolo[3,4-b]pyridin-5-yl)bicyclo[1.1.1]pentan-1-yl)urea [Example I-166-a] | 50 to 1000 |
| (S)-1-methyl-3-(1-methyl-2-oxo-5-(trifluoromethyl)-1,2-dihydropyridin-3-yl)-1-(3-(3-((tetrahydrofuran-3-yl)oxy)-1H-pyrazolo[3,4-b]pyridin-5-yl)bicyclo[1.1.1]pentan-1-yl)urea and (R)-1-methyl-3-(1-methyl-2-oxo-5-(trifluoromethyl)-1,2-dihydropyridin-3-yl)-1-(3-(3-((tetrahydrofuran-3-yl)oxy)-1H-pyrazolo[3,4-b]pyridin-5-yl)bicyclo[1.1.1]pentan-1-yl)urea [Example I-166-b] | ≥ 5000 |
